Test results taken from article PMC9770967, “Native holdup (nHU) to measure binding affinities from cell extracts” (Science Advances, 2022).
*1 amine or outer side, *2 acyl side, *3 side chain or, on linkers, in order; H or OH if unused. Where a SMILES comes first, the peptide text is derived from it. The star is where a group is joined. X1 = O=C(CCCC[C@@H]1SC[C@@H]2NC(=O)N[C@@H]21)NCCCOCCOCCOCCCN*; Suc = O=C(CCC(=O)[*:2])[*:1]

Legend:
[1] = target: isolated PDZ domain of SNX27; details: 10-mer PBM peptide vs isolated PDZ domain, holdup; cited from earlier work
SCRIB PDZ1 = details: fragmentomic, isolated PDZ domain; cited from earlier work
Source text: Supplement sciadv.ade3828_table_s1.zip/sciadv.ade3828_table_s1.xlsx, sheet "nHU-WB_SP" | column: Domain-motif fragmentomic affinities (ProfAff)

SCRIB PDZ3 = details: fragmentomic, isolated PDZ domain; cited from earlier work
Source text: (§1) Supplement sciadv.ade3828_table_s1.zip/sciadv.ade3828_table_s1.xlsx, sheet "nHU-WB_SP"

SCRIB PDZ2 = details: fragmentomic, isolated PDZ domain; cited from earlier work
Source text: as §1

SNX27_PDZ = assay: nHU-MS, SNX27_PDZ bait, total SH-SY5Y extracts; format: binding, human
Protocol: The empty His6-AviTag-MBP-TEV vector was used to produce biotinylated MBP for control experiments. Proteins were coexpressed with BirA biotin ligase (PET21a-BirA, Addgene, no. 20857) in Escherichia coli BL21(DE3) cells. At isopropyl-β-D-thiogalactopyranoside (IPTG) induction (1 mM IPTG at 18°C overnight), 50 μM biotin was added to the media. Harvested cells were lysed in a buffer containing 50 mM tris (pH 7.5), 150 to 300 mM NaCl, 50 μM biotin, 2 mM β-mercaptoethanol, cOmplete EDTA-free protease inhibitor cocktail (Roche, Basel, Switzerland), 1% Triton X-100, and trace amount of deoxyribonuclease, ribonuclease, and lysozyme. Lysates were frozen at −20°C before further purification steps. Lysates were sonicated and centrifuged for clarification. Expressed proteins were captured on in-house prepacked Ni-IDA (Protino Ni-IDA Resin, Macherey-Nagel, Duren, Germany) columns and were washed with at least 10 column volumes of cold wash buffer [50 mM tris (pH 7.5), 150 mM NaCl, and 2 mM β-mercaptoethanol] before elution with 250 mM imidazole. The Ni elution was collected directly on a preequilibrated amylose column (amylose high flow resin, New England Biolabs, Ipswich, MA). Amylose column was washed with 5 column volumes of cold wash buffer before fractionated elution in a buffer containing 25 mM Hepes (pH 7.5), 150 mM NaCl, 1 mM TCEP, 10% glycerol, 5 mM maltose, and cOmplete EDTA-free protease inhibitor cocktail. The concentration of proteins was determined by their ultraviolet absorption at 280 nm before aliquots were snap-frozen in liquid nitrogen and stored at −80°C.
For saturating streptavidin resin with biotinylated peptides or biotin, 50 μl of streptavidin resin was mixed with biotin or peptide at 40 to 60 μM concentration in 6 to 6.5 resin volume for 60 min. To saturate streptavidin resin with biotinylated proteins, 50 μl of streptavidin resin (Streptavidin Sepharose High Performance, Cytiva) was mixed with biotinylated MBP or MBP-PDZ at 40 to 50 μM concentration in 20× resin volume for 60 min. After saturation, resins were washed a single time [10 resin volume, holdup buffer: 50 mM tris (pH 7.5), 300 mM NaCl, and 1 mM TCEP, 0.22-μm filtered] and were depleted with biotin (10 resin volume, 10 min, holdup buffer supplemented with 100 μM biotin). Last, resins were washed two times (10 resin volume, holdup buffer).
For single-point nHU experiments carried out at ~10 μM bait concentration, 50 μl of saturated streptavidin resin was mixed with 200 μl of cell lysate (2 mg/ml). Titration experiments were carried out by mixing control and bait-saturated resin and keeping the total resin volume constant; e.g., ~5 μM bait concentration can be achieved by mixing 25 μl of bait-saturated streptavidin resin with 25 μl of control resin and 200 μl of cell lysate (2 mg/ml). Control and bait-saturated resins were prepared in larger amounts, and a serial dilution was prepared with these presaturated resins to achieve different resin ratios.
Unless specified elswhere, the nHU mixture was incubated at 4°C for 2 hours. After the incubation ended, the resin was separated from the supernatant by a brief centrifugation (15 s, 2000 g). Then, half of the supernatant was removed by pipetting without any delay to avoid any resin contamination; e.g., 100 μl of supernatant is collected if 200 μl of cell lysate was used as analyte. Alternatively, the supernatant can be centrifuged an additional time to clarify it further, removing any possible resin contamination. In principle, the separation of the supernatant should be as fast as possible since any delay can perturb the equilibrium. […] Alternatively, the resin can be separated from the supernatant using filter plates (e.g., various products of Millipore, Burlington, MA) or spin columns (e.g., Pierce spin cups—cellulose acetate filter from Thermo Fisher Scientific, Waltham, MA) to achieve faster separation. […]

Compound	pKd (fragmentomic affinity) [1]	pKd_PDZ1 (SCRIB PDZ1)	pKd_PDZ3 (SCRIB PDZ3)	pKd_PDZ2 (SCRIB PDZ2)	pKapp_HU_not_filtered (SNX27_PDZ; apparent, Eq. 2, not filtered for significance)	pKapp_significant_binders_HU (SNX27_PDZ; apparent, Eq. 2, significant binders (1 σ, P < 0.05))	BI_HU (SNX27_PDZ; n = 6)
CC[C@H](C)[C@H](NC(=O)[C@H](CCC(N)=O)NC(=O)[C@H](CO)NC(=O)[C@@H](NC(=O)[C@H](CCC(N)=O)NC(=O)[C@@H](NC(=O)[C@H](CC(N)=O)NC(=O)[C@H](CCCNC(=N)N)NC(=O)[C@@H]1CCCN1C(=O)[C@H](CC(=O)O)NC(=O)CCC(=O)NCCCOCCOCCOCCCNC(=O)CCCC[C@@H]1SC[C@@H]2NC(=O)N[C@@H]21)[C@@H](C)O)[C@@H](C)O)C(=O)O [ABRAXAS2] ({X1-Suc}-DPRNTQTSQI-OH; C-terminus assumed)	4.04	4.02	4.01				
CC[C@H](C)[C@H](NC(=O)CCC(=O)NCCCOCCOCCOCCCNC(=O)CCCC[C@@H]1SC[C@@H]2NC(=O)N[C@@H]21)C(=O)N[C@@H](CC(=O)O)C(=O)N[C@@H](CC(N)=O)C(=O)N[C@@H](CC(=O)O)C(=O)N[C@H](C(=O)N[C@@H](CCC(=O)O)C(=O)N[C@@H](CO)C(=O)N[C@H](C(=O)N[C@@H](C)C(=O)N[C@@H](CC(C)C)C(=O)O)[C@@H](C)O)[C@@H](C)O [ARHGAP17] ({X1-Suc}-IDNDTESTAL-OH; C-terminus assumed)	4.97	4.91	4.57	3.61			
KARS1: Lysine--tRNA ligase					4.711	4.711	0.3389
